The supplement of paper PMC10307832

Tests used:
Assay in all cases: relative viability (nuclei count vs DMSO), 5 days (fraction); higher = more cells survive
[1] = test system: A-427
How it was run: (§1)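 After 5 days of treatment, lung cancer cells in 1536-well plates were fixed and stained in a single step (final 0.05% Triton X-100, 1% formaldehyde, 1 ug/ml Hoechst) and their nuclei counted on 4× images. Treatment had been applied by pin tool the day after seeding as one drug alone or as a fixed anchor-drug dose with five library-drug doses (not always all listed) in √10 steps. Relative viability is the nuclei count of treated wells divided by that of vehicle wells, and values are medians of duplicate plates.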

[2] = test system: COR-L 105
How it was run: as §1

[3] = test system: ChaGo-K-1
How it was run: as §1

[4] = test system: EKVX
How it was run: as §1

[5] = test system: EMC-BAC-2
How it was run: as §1

[6] = test system: H3255
How it was run: as §1

[7] = test system: HCC-366
How it was run: as §1

[8] = test system: LK-2
How it was run: as §1

[9] = test system: LOU-NH91
How it was run: as §1

[10] = test system: NCI-H1666
How it was run: as §1

[11] = test system: NCI-H1734
How it was run: as §1

[12] = test system: NCI-H1755
How it was run: as §1

[13] = test system: NCI-H1975
How it was run: as §1

[14] = test system: NCI-H2170
How it was run: as §1

[15] = test system: NCI-H23
How it was run: as §1

[16] = test system: NCI-H441
How it was run: as §1

[17] = test system: NCI-H520
How it was run: as §1

[18] = test system: NCI-H596
How it was run: as §1

[19] = test system: PC-3 [JPC-3]
How it was run: as §1

[20] = test system: SK-MES-1
How it was run: as §1

[21] = test system: SW 900
How it was run: as §1

SMILES: CC1(C)CCC(c2ccc(Cl)cc2)=C(CN2CCN(c3ccc(C(=O)NS(=O)(=O)c4ccc(N[C@H](CCN5CCOCC5)CSc5ccccc5)c(S(=O)(=O)C(F)(F)F)c4)cc3)CC2)C1 [Navitoclax] + O=C(CCCCCCC(=O)Nc1ccccc1)NO [Vorinostat] (partner 1 µM)
- relative viability ([1]; first compound 0.005 µM): 0.915
- relative viability ([1]; first compound 0.01581 µM): 0.873
- relative viability ([1]; first compound 0.05 µM): 0.91
- relative viability ([1]; first compound 0.1581 µM): 0.892
- relative viability ([1]; first compound 0.5 µM): 0.838
- relative viability ([2]; first compound 0.005 µM): 0.853
- relative viability ([2]; first compound 0.01581 µM): 0.946
- relative viability ([2]; first compound 0.05 µM): 0.858
- relative viability ([2]; first compound 0.1581 µM): 0.778
- relative viability ([2]; first compound 0.5 µM): 0.745
- relative viability ([3]; first compound 0.005 µM): 0.789
- relative viability ([3]; first compound 0.01581 µM): 0.786
- relative viability ([3]; first compound 0.05 µM): 0.496
- relative viability ([3]; first compound 0.1581 µM): 0.759
- relative viability ([3]; first compound 0.5 µM): 0.781
- relative viability ([4]; first compound 0.005 µM): 0.735
- relative viability ([4]; first compound 0.01581 µM): 0.911
- relative viability ([4]; first compound 0.05 µM): 0.668
- relative viability ([4]; first compound 0.1581 µM): 0.711
- relative viability ([4]; first compound 0.5 µM): 0.79
- relative viability ([5]; first compound 0.005 µM): 0.413
- relative viability ([5]; first compound 0.01581 µM): 0.507
- relative viability ([5]; first compound 0.05 µM): 0.548
- relative viability ([5]; first compound 0.1581 µM): 0.422
- relative viability ([5]; first compound 0.5 µM): 0.418
- relative viability ([6]; first compound 0.005 µM): 0.787
- relative viability ([6]; first compound 0.01581 µM): 0.958
- relative viability ([6]; first compound 0.05 µM): 0.874
- relative viability ([6]; first compound 0.1581 µM): 0.794
- relative viability ([6]; first compound 0.5 µM): 0.586
- relative viability ([7]; first compound 0.005 µM): 0.302
- relative viability ([7]; first compound 0.01581 µM): 0.356
- relative viability ([7]; first compound 0.1581 µM): 0.379
- relative viability ([7]; first compound 0.5 µM): 0.306
- relative viability ([8]; first compound 0.005 µM): 0.293
- relative viability ([8]; first compound 0.01581 µM): 0.33
- relative viability ([8]; first compound 0.05 µM): 0.367
- relative viability ([8]; first compound 0.1581 µM): 0.307
- relative viability ([8]; first compound 0.5 µM): 0.277
- relative viability ([9]; first compound 0.005 µM): 0.956
- relative viability ([9]; first compound 0.01581 µM): 0.925
- relative viability ([9]; first compound 0.05 µM): 0.791
- relative viability ([9]; first compound 0.1581 µM): 0.639
- relative viability ([9]; first compound 0.5 µM): 0.437
- relative viability ([10]; first compound 0.005 µM): 1
- relative viability ([10]; first compound 0.01581 µM): 1.04
- relative viability ([10]; first compound 0.05 µM): 1.03
- relative viability ([10]; first compound 0.1581 µM): 0.999
- relative viability ([10]; first compound 0.5 µM): 1.05
- relative viability ([11]; first compound 0.005 µM): 0.829
- relative viability ([11]; first compound 0.01581 µM): 0.938
- relative viability ([11]; first compound 0.1581 µM): 0.755
- relative viability ([11]; first compound 0.5 µM): 0.703
- relative viability ([12]; first compound 0.005 µM): 0.778
- relative viability ([12]; first compound 0.01581 µM): 0.798
- relative viability ([12]; first compound 0.05 µM): 0.543
- relative viability ([12]; first compound 0.1581 µM): 0.728
- relative viability ([12]; first compound 0.5 µM): 0.691
- relative viability ([13]; first compound 0.005 µM): 0.718
- relative viability ([13]; first compound 0.01581 µM): 0.765
- relative viability ([13]; first compound 0.05 µM): 0.752
- relative viability ([13]; first compound 0.1581 µM): 0.718
- relative viability ([13]; first compound 0.5 µM): 0.592
- relative viability ([14]; first compound 0.005 µM): 0.818
- relative viability ([14]; first compound 0.01581 µM): 0.926
- relative viability ([14]; first compound 0.05 µM): 0.736
- relative viability ([14]; first compound 0.1581 µM): 0.771
- relative viability ([14]; first compound 0.5 µM): 0.622
- relative viability ([15]; first compound 0.005 µM): 0.594
- relative viability ([15]; first compound 0.01581 µM): 0.468
- relative viability ([15]; first compound 0.05 µM): 0.505
- relative viability ([15]; first compound 0.1581 µM): 0.478
- relative viability ([15]; first compound 0.5 µM): 0.544
- relative viability ([16]; first compound 0.005 µM): 0.651
- relative viability ([16]; first compound 0.01581 µM): 0.961
- relative viability ([16]; first compound 0.05 µM): 0.982
- relative viability ([16]; first compound 0.1581 µM): 0.694
- relative viability ([16]; first compound 0.5 µM): 0.725
- relative viability ([17]; first compound 0.005 µM): 0.743
- relative viability ([17]; first compound 0.01581 µM): 0.817
- relative viability ([17]; first compound 0.05 µM): 0.704
- relative viability ([17]; first compound 0.1581 µM): 0.691
- relative viability ([17]; first compound 0.5 µM): 0.749
- relative viability ([18]; first compound 0.005 µM): 0.648
- relative viability ([18]; first compound 0.01581 µM): 0.739
- relative viability ([18]; first compound 0.05 µM): 0.299
- relative viability ([18]; first compound 0.1581 µM): 0.55
- relative viability ([18]; first compound 0.5 µM): 0.496
- relative viability ([19]; first compound 0.005 µM): 0.874
- relative viability ([19]; first compound 0.01581 µM): 0.868
- relative viability ([19]; first compound 0.05 µM): 0.877
- relative viability ([19]; first compound 0.1581 µM): 0.817
- relative viability ([19]; first compound 0.5 µM): 0.499
- relative viability ([20]; first compound 0.005 µM): 1.06
- relative viability ([20]; first compound 0.01581 µM): 1.42
- relative viability ([20]; first compound 0.05 µM): 1.15
- relative viability ([20]; first compound 0.1581 µM): 1.1
- relative viability ([20]; first compound 0.5 µM): 1.17
- relative viability ([21]; first compound 0.005 µM): 0.432
- relative viability ([21]; first compound 0.01581 µM): 0.573
- relative viability ([21]; first compound 0.1581 µM): 0.478
- relative viability ([21]; first compound 0.5 µM): 0.365
